Source: PubChem BioAssay AID179 (DTP/NCI, 2004)
Active and inactive are the calls of the source.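 Rule for the calls: active = compounds giving half or more protection of infected cells from virus-caused growth loss, again on retest; inactive = the rest.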 Where a SMILES comes first, the peptide text is derived from it.

Tested on: CEM cells HIV-1 protection, formazan growth assay
Experiment: NCI AIDS Antiviral Assay
Details: for IC50: measured here: growth of uninfected CEM cells
Method in brief: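 Human CEM cells, uninfected and HIV-1-infected, exposed to five drug concentrations; growth measured by soluble formazan assay and scored as percent protection from infection, with protecting compounds retested.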

In the case of `O=C(Nc1ccccc1)N(CCCCN(Cc1ccccc1)C(=O)Nc1ccccc1)Cc1ccccc1`, the EC50 is reported as over 200 µM and the IC50 is reported as 112 µM.
`NC1CCC[C@@H](O)[C@H]1O` (some centres undefined) gave an EC50 of over 200 µM and an IC50 of over 200 µM.
Compound `Cc1ccc(S(=O)(=O)NC2C(=O)c3ccccc3C(=O)C2n2cnc3ccccc32)cc1` (centres undefined) has an EC50 of over 200 µM and an IC50 of 42.7 µM.
`CCOC(=O)Nc1[nH]c(C)c(Cc2ccccc2)c1C#N` gave an EC50 of over 200 µM and an IC50 of 12.3 µM.
`O=C(O)C1(C(O)c2ccccc2)SCCCS1` (centres undefined) showed an EC50 of over 200 µM and an IC50 of over 200 µM.
With `COc1ccccc1-n1c(=O)n(C)c(=O)n1C(C)(C)C` the EC50 was over 200 µM and the IC50 was over 200 µM.
With `CCOC(=O)/C=C/c1ccc([N+](=O)[O-])cc1` the EC50 was over 32.4 µM and the IC50 was over 32.4 µM.
For `CCOC(=O)c1c(OC)cc2n(c1=O)Cc1cc3ccccc3nc1-2`, the EC50 was over 10 µM and the IC50 was over 10 µM.
`CCOC(=O)Cn1c(=O)c2nc(SC)sc2n(-c2ccc(C)cc2)c1=S` gave an EC50 of over 200 µM and an IC50 of over 200 µM.
With `CC(C)CC(NC(=O)C(Cc1ccc(O)cc1)NC(=O)C(CO)NC(=O)C(C)NC(=O)C(CCCN=C(N)N)NC(=O)C(CCC(=O)O)NC(=O)C(NC(=O)C(N)CCC(=O)O)C(C)C)C(=O)NC(CO)C(=O)NC(CCCCN)C(=O)O` (centres undefined) (H-EVERASYLSK-OH; configuration not given here) the outcome was “inactive”.
`c1ccc2c(c1)C(=NCCCN1CCCCCCC1)c1cccn1-2` gave an EC50 of over 200 µM and an IC50 of 47.9 µM.
`O=P1(O)C=CC2(CCCC2)O1` was tested, and the EC50 was over 200 µM and the IC50 was over 200 µM.
Work on `O=C(Nc1ccccc1)N(CCN(Cc1ccccc1)C(=O)Nc1ccccc1)CCN(Nc1ccccc1)C(=O)Nc1ccccc1` yielded an EC50 of over 200 µM and an IC50 of over 200 µM.
`COc1ncnc2c1ncn2C1OC(CO)CC1F` (centres undefined) gave an EC50 of over 186 µM and an IC50 of over 186 µM.
With `COc1ccccc1NC(=S)N/C=C(\C#N)c1nc2ccccc2s1` the EC50 was over 200 µM and the IC50 was 117 µM.
`COC(=O)c1ccc2n[se]nc2c1` was tested, and the outcome was “inactive”.
`N#Cc1c(-c2ccco2)cc(-c2ccc(NCc3nc4ccccc4[nH]3)cc2)nc1N` showed an EC50 of over 12.9 µM and an IC50 of over 12.9 µM.
`O=C(Cc1nc(-c2ccccc2)cc(=O)n1-c1ccccc1Cl)c1ccncc1` showed an EC50 of over 1.35 µM and an IC50 of over 1.35 µM.
`N#CC1C(=S)NC(c2ccccc2)=CC12CCCCC2` (centres undefined) showed an EC50 of over 200 µM and an IC50 of 42.7 µM.
In the case of `Cc1ccc2ccc3c(-c4ccccc4)cc(C)nc3c2n1`, the EC50 is reported as over 20 µM and the IC50 is reported as 3.31 µM.
For `COC(=O)c1cc(OC(C)=O)c2c(OC)ccc(OC)c2c1`, the outcome was “inactive”.
Compound `O=C1OC2(c3ccccc31)c1ccccc1-c1ccccc12` has an EC50 of over 66.1 µM and an IC50 of over 66.1 µM.
`Cc1ccc(S(=O)(=O)N2CCCSCC2)cc1` was tested, and the EC50 was over 182 µM and the IC50 was over 182 µM.
`CC1=NN(C(=O)c2ccc(Cl)cc2)C(=O)/C1=C/c1ccc(O)cc1` gave an EC50 of over 15.1 µM and an IC50 of over 15.1 µM.
`Cc1ccccc1-n1c(=O)sc2c(=O)n(-c3ccccc3)c(=S)[nH]c21` gave an EC50 of over 2.82 µM and an IC50 of over 2.82 µM.
In the case of `Cc1[nH]c2ccccc2c1CC/C(=N\Nc1ccccc1)c1ccccc1`, the outcome is reported as “inactive”.
Work on `NCC1(N2CCOCC2)C2CCCC21CO` (centres undefined) yielded an EC50 of over 1100 µM and an IC50 of over 1100 µM.
`COc1cc(N=Nc2c(S(=O)(=O)O)cc3cc(NC(=O)Nc4ccc5c(O)c(N=Nc6ccc7cc(S(=O)(=O)O)ccc7c6)c(S(=O)(=O)O)cc5c4)ccc3c2O)c(C)cc1N` was tested, and the outcome was “active”.
For `C=CCNC(=O)C(O)C(O)C(=O)NCC=C` (centres undefined), the EC50 was over 1100 µM and the IC50 was over 1100 µM.
`c1cnc2c(c1)CCc1cc3cccnc3nc1-2` was tested, and the EC50 was over 200 µM and the IC50 was 186 µM.
`COc1ccc(OC)c(NC(=O)C(=O)CC(=O)c2sc(-n3nc(-c4ccccc4)cc3-c3ccccc3)nc2C)c1` gave an EC50 of over 437 µM and an IC50 of 363 µM.
`O=[N+]([O-])c1ccc(N2N=C(c3ccc4ccccc4c3O)CC2c2ccc(Cl)cc2Cl)c([N+](=O)[O-])c1` (centres undefined) showed an EC50 of over 200 µM and an IC50 of 42.7 µM.
For `COc1c(C(=O)O)oc2c(OC)cccc12`, the outcome was “inactive”.
With `CC(=O)OC1CCn2nnc(COC(=O)NC(C)C)c21` (centres undefined) the outcome was “inactive”.
In the case of `O=C1C(=O)N(c2nccs2)C(=O)C(=O)C1c1nc2ccccc2s1`, the EC50 is reported as over 100 µM and the IC50 is reported as over 100 µM.
`O=C1Nc2ccc(cc2)Cc2ccc(cc2)NC(=O)N2CCN(CC2)C(=O)Nc2ccc(cc2)Cc2ccc(cc2)NC(=O)N2CCN1CC2` showed an EC50 of over 10.7 µM and an IC50 of over 10.7 µM.
With `CC(=O)Nc1ccc(C=Nc2ccc(SSc3ccc(N=Cc4ccc(NC(C)=O)cc4)cc3)cc2)cc1` the EC50 was over 200 µM and the IC50 was 23.4 µM.
For `O=C1NC2CSC(CCCCC(=O)ON3C(=O)CCC3=O)C2N1` (centres undefined), the EC50 was over 741 µM and the IC50 was 123 µM.
With `O=C(NCCCN(CCCCN(CCCNC(=O)C(F)(F)F)Cc1ccccc1)Cc1ccccc1)C(F)(F)F` the EC50 was over 200 µM and the IC50 was 37.2 µM.
`Cc1nnc(NS(=O)(=O)c2ccc(NC(=O)c3ccccc3SC(=O)CCCC[n+]3ccccc3)cc2)s1` gave an EC50 of 51.3 µM and an IC50 of 55 µM.
`CCOC(=O)c1c(-c2ccccc2)c(OC)cn1C` showed an EC50 of over 200 µM and an IC50 of over 200 µM.
For `CS(=O)(=O)NNS(=O)(=O)c1ccc2ccccc2c1`, the EC50 was over 224 µM and the IC50 was over 224 µM.
Compound `C=C(Br)CN(C(C)=O)C1CCCCC1` has an EC50 of over 200 µM and an IC50 of over 200 µM.
